The text below walks through data of patent publication US9119805B2, “Therapy and prevention of problem drinking” (THE UNIVERSITY OF SYDNEY, priority 2009, dated 2015).

SMILES strings stand for the structures.

Assay [1] concerns alcohol-dependent adults and non-dependent problem drinkers. The experiment in a line: Human Study 2: intranasal oxytocin, alcohol self-administration. As to conditions: versus placebo. It is filed as in vivo. As for the experimental part: In a second clinical study in humans, the effect(s) of intranasal oxytocin therapy on alcohol self-administration are determined in a population of alcohol-dependent adults and in a population of non-dependent problem drinkers.
At least forty male and female adults are recruited from the community to the Brain and Mind Research Institute (BMRI) to participate in a laboratory based investigation looking at the impact of oxytocin on alcohol craving. Participants have a current diagnosis of alcohol dependence according to the Diagnostic and Statistical Manual of Mental Disorders, Fourth Edition (DSM-IV) as determined by the Structured Clinical Interview for the DSM-IV (SCID-IV) or are non-dependent subjects scoring higher than 8 on AUDIT. Male and female participants are chronic hazardous drinkers consuming more than 20 (females) or 25 (males) standard drinks per week (i.e., females: more than 200 g alcohol per week; males more than 250 g alcohol per week), respectively, and have not been abstinent more than 3 days per week in the 30 days preceding commencement of the trial as determined by AUDIT.
(§1) All subjects are tested for baseline SCID-IV, AUDIT, PDQ, 90-day TLFB, DASS-21, PANAS, AUQ, FTND, urine toxicology, plasma oxytocin and cortisol, liver function testing, heart rate (HR), blood pressure (BP), and ECG, and females are pregnancy-tested and their menstrual cycles determined, as described herein above for Study 2. Neuropsychological evaluations are also performed e.g., according to CANTAB. Additionally, subjects are subjected to attention bias assessment task testing, wherein attention biases to alcohol-related cues are determined using e.g., stroop and dot-probe methodology. Subjects also participate in a reward learning computer task, to assess motivation for their alcohol consumption. Based on their test results, subjects are selected for recruitment in the study.
(§2) Recruited subjects are administered placebo or oxytocin intranasally (80 IU per day: 40 IU at 9:00 am and 40 IU at 9:00 pm) over a period of 7 days, following completion of baseline measurements. Subjects are instructed on self-administration procedures. Drug administration commences on the evening of the day of the clinical and medical interview and ceases on a morning one-week later, after 14 doses have been administered. Subjects are randomized to oxytocin-receiving or placebo-receiving groups, and the groups are stratified according to gender, age, and drinking behavior. Subjects are contacted by telephone daily to confirm medication compliance and determine adverse events.
Subjects returning to the BMRI on the afternoon of the final day of testing are evaluated. Bloods for plasma oxytocin and cortisol levels are collected before commencement. A urine toxicology test and alcohol breathalyzer test are also performed, to determine whether subjects have been alcohol-free and drug-free at the time of testing. Subjects are tested according to DASS-21, PANAS, 7-day TLFB, and AUQ, and neuropsychological evaluations e.g., according to CANTAB are performed. Changes in mood, drinking behavior and neuropsychology are evaluated for both groups by comparison with baseline evaluations. Changes in smoking behavior are evaluated by FTND testing and comparison with baseline evaluations. HR and BP records over the period and at cessation are also determined and compared to baseline levels before commencement of therapy. […]

Assay [2] shares this test system. As to the kind of experiment: Human Study 3: chronic (4 week) intranasal oxytocin, double-blind placebo-controlled. The class given is in vivo. How it is done:
In a third clinical study in humans, a double-blind, randomized and placebo-controlled study is conducted to determine the effect(s) of intranasal oxytocin therapy on alcohol self-administration in a population of alcohol-dependent adults and in a population of non-dependent problem drinkers. This study determines safety and efficacy of chronic intranasal oxytocin therapy for problem drinking.
At least 30 male and female alcohol-dependent adults and non-dependent problem drinkers are recruited according to the protocols described in the preceding examples hereof, to participate in a trial investigating chronic (4 week) intranasal oxytocin therapy for problem drinking e.g., alcohol-dependent subjects having a current diagnosis of alcohol dependence according to the Diagnostic and Statistical Manual of Mental Disorders, Fourth Edition (DSM-IV) as determined by the Structured Clinical Interview for the DSM-IV (SCID-IV), and non-dependent subjects scoring higher than 8 on AUDIT. Exclusion criteria are as indicated in the preceding examples.
as §1, with “FTND, body mass index (BMI),” for “FTND,”, “bloods for baseline” for “plasma”, “evaluations” for “evaluations are also performed”, “CANTAB are also performed.” for “CANTAB.”
as §2, with “28” for “7”, “procedures and given an initial 14 day supply of medication. Participants attend a mid-point assessment where they will receive the remaining 14 day supply of medication.” for “procedures.”, “28 days” for “one-week”, “56” for “14”, “behavior.” for “behavior. Subjects are contacted by telephone daily to confirm medication compliance and determine adverse events.”
Recruited subjects are also fitted with an actigraphy watch and complete a sleep diary over the following two week period. The actigraphy watches provide information on sleep/wake cycles and light exposure which play an important role in the psychopathology of alcohol misuse. Participants also complete daily self-tests of drinking behavior (AUQ), mood (PANAS), and report on adverse effects of medication. All participants are contacted weekly beginning after 3 days from the commencement of therapy, to determine compliance and adverse events.
Subjects returning to the BMRI on the afternoon of the 14th day of testing are evaluated i.e., the mid-point assessment. Bloods are taken for analysis of plasma oxytocin and cortisol levels as well as basic pathology including liver function and compared to baseline levels before commencement of drug dosing. A urine toxicology test and alcohol breathalyzer test are also performed, to determine whether subjects have been alcohol-free and drug-free at the time of testing. Subjects are tested according to DASS-21, PANAS, 14-day TLFB, and AUQ, and neuropsychological evaluations e.g., according to CANTAB are performed. Changes in mood, drinking behavior and neuropsychology are evaluated for both groups by comparison with baseline evaluations. […]

[3] abbreviates: dosing period and follow-up, than before therapy.
[4] abbreviates: intranasal 80 IU per day for 28 days.

For `CC[C@H](C)[C@@H]1NC(=O)[C@H](Cc2ccc(O)cc2)NC(=O)[C@@H](N)CSSC[C@@H](C(=O)N2CCC[C@H]2C(=O)N[C@@H](CC(C)C)C(=O)NCC(N)=O)NC(=O)[C@H](CC(N)=O)NC(=O)[C@H](CCC(N)=O)NC1=O` [oxytocin], the alcohol consumed entry in assay [1] (ad libitum drinking sessions) is recorded as “consume less alcohol”. Also, in assay [1], the “bias to alcohol-related cues” value is “lower bias”, the “positive response to the alcohol primer” value is “lower levels of positive response”, the “reward motivation for alcohol consumption” value is on record as “reduced reward motivation” and the “subjective craving for alcohol” value is reported as “lower”. Moreover, the “criteria for problem drinking” value in assay [2] (at 3-month or 6-month or 12-month follow-up) is “do not meet the criteria for problem drinking”. The heavy drinking days entry in assay [2] (dosing period and 3-, 6-, 12-month follow-up, than before therapy) was “fewer heavy drinking days”. Further, in assay [2] (dosing period and follow-up), the “cognitive biases to alcohol-related cues” value is listed as “reduced cognitive biases”; the “liver function, BMI, and heart function” value is “gradually improved”; the “reward driven motivation to consume alcohol” value is “reduced reward driven motivation”. In assay [2] (setting [3]), the abstinent days result is on record as “more abstinent days” and the “period of time between heavy drinking days” value is “longer period of time between heavy drinking days”. Further, in assay [2] (setting [4]), the alcohol intake result is recorded as “reduced alcohol intake”; the “short-term memory function and general mood” value was “enhanced short-term memory function and general mood”. Further, in assay [2] (intranasal 80 IU per day for 28 days, dependent and non-dependent drinkers), the impulsivity result was “decreased impulsivity”. The sleep behavior result in assay [2] (throughout the medication dosing period) is “improved sleep behavior”.
